Series [1] can be described thus: Lipophilicity, log D of compound at pH 7.4. The format is physicochemical. The conditions noted are these: buffer.
Series [2] has as its target Transient receptor potential cation channel subfamily A member 1 (Homo sapiens, UniProt O75762). Nature of the series: Inhibition of human TRPA1.
Series [3] has as its target Transient receptor potential cation channel subfamily A member 1 (Rattus norvegicus, UniProt Q6RI86). Nature of the series: Inhibition of rat TRPA1.
Series [4] can be described thus: Permeability across MDCK cells. The format is ADME, cell-based, Canis lupus familiaris. The conditions noted are these: dog, read-out: permeability.
Series [5] is described as follows: Plasma protein binding in human. The format is ADME, cell-free. The conditions noted are these: read-out: PPB (converted).
Series [6] is described as follows: Kinetic solubility of compound. The format is physicochemical. Particulars: read-out: Kinetic_solubility.

The values below come from ChEMBL document CHEMBL3751794, “α-Aryl pyrrolidine sulfonamides as TRPA1 antagonists” (Bioorg Med Chem Lett, 2016).

Each structure is given as a SMILES string.

One may read the logD as lipophilicity at a set pH, counting ionised and neutral species. Broadly, the IC50 is the midpoint of a concentration-inhibition curve. Higher therefore signals lower potency.

Transient receptor potential cation channel subfamily A member 1 (Homo sapiens, UniProt O75762), sequence (O75762 whole entry): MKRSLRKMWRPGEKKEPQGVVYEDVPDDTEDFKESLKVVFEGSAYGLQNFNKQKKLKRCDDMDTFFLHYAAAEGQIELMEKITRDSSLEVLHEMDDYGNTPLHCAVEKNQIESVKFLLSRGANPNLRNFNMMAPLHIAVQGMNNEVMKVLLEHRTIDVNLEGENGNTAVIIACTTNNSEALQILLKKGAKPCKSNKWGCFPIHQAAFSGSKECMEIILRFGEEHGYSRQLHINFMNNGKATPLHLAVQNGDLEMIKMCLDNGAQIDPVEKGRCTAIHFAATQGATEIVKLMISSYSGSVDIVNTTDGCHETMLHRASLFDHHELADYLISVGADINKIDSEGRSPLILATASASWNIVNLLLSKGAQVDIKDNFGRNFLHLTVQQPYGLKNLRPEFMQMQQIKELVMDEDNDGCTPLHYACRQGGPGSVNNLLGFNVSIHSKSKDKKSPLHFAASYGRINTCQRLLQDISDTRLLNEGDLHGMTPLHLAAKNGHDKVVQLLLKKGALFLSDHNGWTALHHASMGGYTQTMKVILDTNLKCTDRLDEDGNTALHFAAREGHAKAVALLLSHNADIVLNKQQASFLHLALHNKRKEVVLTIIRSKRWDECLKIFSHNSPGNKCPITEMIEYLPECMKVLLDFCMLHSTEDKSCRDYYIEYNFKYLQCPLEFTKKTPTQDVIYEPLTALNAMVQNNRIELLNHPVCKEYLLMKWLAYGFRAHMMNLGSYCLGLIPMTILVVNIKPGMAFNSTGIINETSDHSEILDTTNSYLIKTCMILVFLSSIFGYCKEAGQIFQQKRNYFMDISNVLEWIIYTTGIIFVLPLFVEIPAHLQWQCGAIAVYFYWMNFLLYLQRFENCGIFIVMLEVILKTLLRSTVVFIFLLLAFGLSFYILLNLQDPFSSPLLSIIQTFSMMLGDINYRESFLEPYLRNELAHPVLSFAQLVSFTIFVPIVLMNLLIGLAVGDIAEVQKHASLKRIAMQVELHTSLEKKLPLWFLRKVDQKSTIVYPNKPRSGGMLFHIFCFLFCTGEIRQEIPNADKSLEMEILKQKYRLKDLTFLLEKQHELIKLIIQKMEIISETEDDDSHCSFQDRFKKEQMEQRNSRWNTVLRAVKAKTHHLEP
Transient receptor potential cation channel subfamily A member 1 (Rattus norvegicus, UniProt Q6RI86), sequence (Q6RI86 whole entry): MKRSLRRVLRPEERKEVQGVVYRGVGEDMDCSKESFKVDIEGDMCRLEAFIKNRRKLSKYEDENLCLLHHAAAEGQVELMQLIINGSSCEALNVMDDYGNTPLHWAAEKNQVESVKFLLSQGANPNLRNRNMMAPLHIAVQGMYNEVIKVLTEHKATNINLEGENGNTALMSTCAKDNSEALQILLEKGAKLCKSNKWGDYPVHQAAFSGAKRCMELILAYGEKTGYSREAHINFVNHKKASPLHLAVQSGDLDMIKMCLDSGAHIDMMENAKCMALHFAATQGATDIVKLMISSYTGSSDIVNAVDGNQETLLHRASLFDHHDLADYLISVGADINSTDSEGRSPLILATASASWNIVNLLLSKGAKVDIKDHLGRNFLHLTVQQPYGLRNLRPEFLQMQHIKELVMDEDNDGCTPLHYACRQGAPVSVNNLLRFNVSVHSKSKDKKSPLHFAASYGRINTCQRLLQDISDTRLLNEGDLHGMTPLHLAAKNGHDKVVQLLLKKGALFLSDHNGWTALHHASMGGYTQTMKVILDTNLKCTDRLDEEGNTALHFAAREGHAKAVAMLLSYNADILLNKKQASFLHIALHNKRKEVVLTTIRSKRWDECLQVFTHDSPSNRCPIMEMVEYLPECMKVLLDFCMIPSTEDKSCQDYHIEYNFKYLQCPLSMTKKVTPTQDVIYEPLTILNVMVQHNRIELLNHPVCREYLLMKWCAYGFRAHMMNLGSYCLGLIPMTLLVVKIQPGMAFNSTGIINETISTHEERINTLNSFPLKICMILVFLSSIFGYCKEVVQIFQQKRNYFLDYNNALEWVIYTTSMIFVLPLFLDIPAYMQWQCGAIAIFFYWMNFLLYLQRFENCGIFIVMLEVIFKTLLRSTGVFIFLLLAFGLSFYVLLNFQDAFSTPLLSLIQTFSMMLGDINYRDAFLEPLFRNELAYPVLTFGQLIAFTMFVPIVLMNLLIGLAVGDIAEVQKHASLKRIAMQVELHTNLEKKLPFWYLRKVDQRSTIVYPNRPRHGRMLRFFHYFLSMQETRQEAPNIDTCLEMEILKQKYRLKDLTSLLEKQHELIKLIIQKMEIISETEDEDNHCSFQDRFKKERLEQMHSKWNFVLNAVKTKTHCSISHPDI

Molecule `O=S(=O)(c1ccc(F)cn1)N1[C@H](CO)CC[C@@H]1c1ccc(F)cc1` returned a logD in series [1] of 2. The same molecule showed an IC50 in series [2] of more than 20000 nM.

In the case of `O=S(=O)(c1cc(Cl)c(F)c(Cl)c1)N1CCC[C@@H]1c1ccc(F)cc1`, in series [1], the pH-dependent lipophilicity (logD) was determined as 4.6. Besides, in series [2], it took 350 nM to reach half-maximal inhibition (IC50).

`Cc1cc(CN2[C@H](CO)CC[C@@H]2c2ccc(F)cc2)cc(C)c1F` returned a logD in series [1] of 4. This molecule also gave an IC50 in series [2] of 6700 nM.

In the case of `Cc1cc(S(=O)(=O)N2CCC[C@@H]2c2ccc(F)cc2)cc(C)c1F`, the logD in series [1] came to 4.4. In series [2], this molecule gave an IC50 of 110 nM.

In series [1], `Cc1cc(S(=O)(=O)N2C[C@H](F)C[C@@H]2c2ccc(F)cc2)cc(C)c1F` showed a log distribution coefficient (logD) of 2.6. In addition, in series [2], the concentration for half-maximal inhibition (IC50) was found to be 380 nM.

Take `O=S(=O)(c1cccnc1)N1[C@H](CO)CC[C@@H]1c1ccc(F)cc1`: the logD in series [1] worked out at 1.1. The half-inhibitory concentration (IC50) in series [2] was more than 20000 nM.

In the case of `Cc1cc(C(=O)N2[C@H](CO)CC[C@@H]2c2ccc(F)cc2)cc(C)c1F`, the log distribution coefficient (logD) in series [1] was found to be 3.1. The molecule further gave an IC50 in series [2] of more than 20000 nM.

With `Cc1cc(S(=O)(=O)N2CC[C@@H](F)[C@@H]2c2ccc(F)cc2)cc(C)c1F`, the logD in series [1] is 3.9. In series [2], the IC50 amounted to 20 nM.

With `Cc1cc(S(=O)(=O)N2CC(F)(F)C[C@@H]2c2ccc(F)cc2)cc(C)c1F`, in series [1], the logD amounted to 4.2. For the same molecule, the half-inhibitory concentration (IC50) in series [2] is 23 nM.

In series [1], `COC[C@@H]1CC[C@H](c2ccc(F)cc2)N1S(=O)(=O)c1cc(C)c(F)c(C)c1` gave a log distribution coefficient (logD) of 3.9. This molecule registered an IC50 in series [2] of 270 nM.

Consider `O=S(=O)(c1cc(Cl)c(F)c(Cl)c1)N1[C@H](CO)CC[C@@H]1c1ccc(F)cc1`, for which the logD in series [1] amounted to 3.8. The half-maximal inhibitory concentration (IC50) came to 110 nM in series [2] and 7300 nM in series [3]. In addition, in series [4], the Papp was found to be 5.7 ×10⁻⁶ cm/s. Besides, in series [5], the fraction unbound was 0.006. Also, the solubility kinetic in series [6] is less than 1 µM.

Turning to `Cc1cc(C)cc(S(=O)(=O)N2[C@H](CO)CC[C@@H]2c2ccc(F)cc2)c1`, the logD in series [1] came to 3.2. Further, in series [2], the IC50 was determined as 290 nM.

`Cc1cc(S(=O)(=O)N2[C@H](CO)CC[C@@H]2c2ccc(F)cc2)cc(C)c1F`: the log distribution coefficient (logD) in series [1] was 3.3. The molecule also yielded an IC50 in series [2] of 63 nM.

In series [1], `Cc1cc(S(=O)(=O)N2[C@H](CN(C)C)CC[C@@H]2c2ccc(F)cc2)cc(C)c1F` showed a logD of 3.7. In series [2], this molecule displayed a half-maximal inhibitory concentration (IC50) of more than 18000 nM.

For `Cc1cc(S(=O)(=O)N2[C@H](CNCC(F)(F)F)CC[C@@H]2c2ccc(F)cc2)cc(C)c1F`, in series [1], the logD came to 4.3. In series [2], this molecule displayed an IC50 of more than 20000 nM.

With `O=S(=O)(c1ccc(F)cc1)N1CCC[C@@H]1c1ccc(F)cc1`, the logD in series [1] worked out at 3.2. The half-maximal inhibitory concentration (IC50) in series [2] was 6600 nM.

For the molecule `O=S(=O)(c1ccccc1)N1[C@H](CO)CC[C@@H]1c1ccc(F)cc1`, the logD in series [1] turned out to be 2.2. In series [2], the IC50 is more than 19000 nM.

`Cc1cc(S(=O)(=O)N2[C@H](CO)CC[C@@H]2c2ccc(F)cc2)cc(Cl)c1F`: the logD in series [1] came out at 3.6. Also, half-maximal inhibition in series [2] (IC50) required 130 nM.

`CNC[C@@H]1CC[C@H](c2ccc(F)cc2)N1S(=O)(=O)c1cc(C)c(F)c(C)c1` showed a log distribution coefficient (logD) in series [1] of 2.7. The molecule also gave a half-maximal inhibitory concentration (IC50) in series [2] of more than 20000 nM.

`Cc1cc(S(=O)(=O)N2[C@H](CO)CC[C@@H]2c2ccc(F)cc2)ccc1F` registered a logD in series [1] of 2.8. This molecule came in with an IC50 in series [2] of 190 nM.
